# Reference: patent US12122775B1, “Substituted pyrido[4,3-e]pyrrolo[1,2-a]pyrazines as CK2 inhibitors” (KING FAISAL UNIVERSITY, priority 2024, dated 2024)
# Experiments:
# [1] = test system: PC3 (prostate); test: In vitro cytotoxic activity MTT assay, PC3; format: cell-based; conditions: Homo sapiens, Prostate cell; PC3 (prostate) cells, exposed for 96 hours; read-out: Cytotoxicity activity IC50 (50% inhibition of cell proliferation)
# Experimental: (§1) Compounds 1-16 were screened for their in vitro cytotoxic activity utilizing a 3-(4,5-dimethyl-thiazol-2-yl)-2,5-diphenyltetrazolium bromide (MTT) assay against selected cancer human cell lines consisting of PC3 (prostate), HCT116 (colon), A375 (melanoma), H1299 (lung), MIAPaCa-2 (pancreas), HL60 (leukemia), MCF7 (breast), MDA-MB-231 (breast) (T. Mosmann, J. Immunol. Meth., 1983, 65, 55-63). The cells were cultured at 37° C. in RMPI1640 medium supplemented with 10% fetal bovine serum, 50 IU/mL penicillin, and 50 μg/mL streptomycin in a 5% CO2 incubator. All cells were sub-cultured 3 times/week by trypsinisation. Viable cells were seeded and allowed to adhere for 12 hours before a test drug was added in 96-well plates at an initial density of 1.0×10^5 cells/mL. Tumor cell lines were separately exposed to various concentrations of the tested compounds followed by incubation at a temperature of 37° C. during 96 hours inside a medium of fresh RMPI 1640. Cells were subsequently incubated at 37° C. using MTT at 0.5 mg/mL during 4 hours. After removal of supernatant, formazan crystals were dissolved in isopropanol and the optical density was measured at 570 nm. CX-4945 was used as a positive control.
# [2] = test system: MIAPaCa-2 (pancreas); test: In vitro cytotoxic activity MTT assay, MIAPaCa-2; format: cell-based; conditions: Homo sapiens, MIA PaCa-2; MIAPaCa-2 (pancreas) cells, exposed for 96 hours; read-out: Cytotoxicity activity IC50 (50% inhibition of cell proliferation)
# Experimental: as §1
# [3] = test system: MDA-MB-231 (breast); test: In vitro cytotoxic activity MTT assay, MDA-MB-231; format: cell-based; conditions: Homo sapiens; MDA-MB-231 (breast) cells, exposed for 96 hours; read-out: Cytotoxicity activity IC50 (50% inhibition of cell proliferation)
# Experimental: as §1
# [4] = test system: HCT116 (colon); test: In vitro cytotoxic activity MTT assay, HCT116; format: cell-based; conditions: Homo sapiens, HCT-116; HCT116 (colon) cells, exposed for 96 hours; read-out: Cytotoxicity activity IC50 (50% inhibition of cell proliferation)
# Experimental: as §1
# [5] = target: T1, recombinant human CK2 (RRββ-holoenzyme) (Homo sapiens, UniProt P68400); test: CK2 Kinase Assay (radiometric, [γ-33P] ATP); format: biochemical; conditions: final ATP concentration 15 μM, 10 min at 30° C., eight concentrations; read-out: protein kinase CK2 activity IC50
# T1 construct: purchased Millipore
# Experimental: CK2 Kinase Assay was conducted using the protocol as described in Pierre F. et al; J. Med. Chem. 2011, 54, 635-654. The tested compounds in aqueous solution were added at a volume of 10 μL to a reaction mixture comprising 10 μL of assay dilution buffer (ADB; 20 mM MOPS, pH 7.2, 25 mM β-glycerol phosphate, 5 mM EGTA, 1 mM sodium orthovanadate, and 1 mM dithiothreitol), 10 μL of substrate peptide (RRRDDDSDDD, dissolved in ADB at a concentration of 1 mM), 10 μL of recombinant human CK2 (RRββ-holoenzyme, 25 ng dissolved in ADB; Millipore). Reactions were initiated by the addition of 10 μL of ATP solution (90%75 mM MgCl2, 75 μM ATP (final ATP concentration: 15 μM) dissolved in ADB; 10% [γ-33P] ATP (stock 1 mCi/100 μL; 3000 Ci/mmol (Perkin-Elmer) and maintained for 10 min at 30° C. The reactions were quenched with 100 μL of 0.75% phosphoric acid and then transferred to and filtered through a phosphor cellulose filter plate (Millipore). After washing each well five times with 0.75% phosphoric acid, the plate was dried under vacuum for 5 min and, following the addition of 15 μL of scintillation fluid to each well, the residual radioactivity was measured using a Wallac […]. The IC50 values were derived from eight concentrations of test inhibitors.
# [6] = test system: A375 (melanoma); test: In vitro cytotoxic activity MTT assay, A375; format: cell-based; conditions: Homo sapiens, A-375; A375 (melanoma) cells, exposed for 96 hours; read-out: Cytotoxicity activity IC50 (50% inhibition of cell proliferation)
# Experimental: as §1
# [7] = test system: MCF7 (breast); test: In vitro cytotoxic activity MTT assay, MCF7; format: cell-based; conditions: Homo sapiens; MCF7 (breast) cells, exposed for 96 hours; read-out: Cytotoxicity activity IC50 (50% inhibition of cell proliferation)
# Experimental: as §1
# [8] = test system: H1299 (lung); test: In vitro cytotoxic activity MTT assay, H1299; format: cell-based; conditions: Homo sapiens, NCI-H1299; H1299 (lung) cells, exposed for 96 hours; read-out: Cytotoxicity activity IC50 (50% inhibition of cell proliferation)
# Experimental: as §1
# [9] = test system: HL60 (leukemia); test: In vitro cytotoxic activity MTT assay, HL60; format: cell-based; conditions: Homo sapiens, HL-60; HL60 (leukemia) cells, exposed for 96 hours; read-out: Cytotoxicity activity IC50 (50% inhibition of cell proliferation)
# Experimental: as §1
# T1 sequence (P68400 whole entry): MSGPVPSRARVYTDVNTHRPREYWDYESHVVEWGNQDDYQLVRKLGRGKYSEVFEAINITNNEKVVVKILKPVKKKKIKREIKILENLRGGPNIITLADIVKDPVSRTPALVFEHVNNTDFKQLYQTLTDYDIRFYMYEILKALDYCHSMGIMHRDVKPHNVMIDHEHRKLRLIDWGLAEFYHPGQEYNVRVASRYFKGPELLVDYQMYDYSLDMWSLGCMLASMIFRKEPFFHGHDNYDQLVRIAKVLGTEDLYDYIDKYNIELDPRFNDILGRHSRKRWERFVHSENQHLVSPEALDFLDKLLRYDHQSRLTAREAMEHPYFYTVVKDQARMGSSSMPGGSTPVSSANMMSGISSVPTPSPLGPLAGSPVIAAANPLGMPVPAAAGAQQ
# T1 sequence (P67870 whole entry partner): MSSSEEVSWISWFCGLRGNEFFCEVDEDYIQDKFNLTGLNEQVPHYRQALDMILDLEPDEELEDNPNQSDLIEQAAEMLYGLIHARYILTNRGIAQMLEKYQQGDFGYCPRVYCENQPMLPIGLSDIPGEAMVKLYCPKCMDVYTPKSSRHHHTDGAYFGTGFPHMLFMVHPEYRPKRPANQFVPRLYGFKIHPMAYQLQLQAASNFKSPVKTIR
compound,measurement,setting,value
"O=C(O)c1ccn2c1c(Nc1cccc(Cl)c1)nc1ccncc12 [Compound 1, 6-((3-chlorophenyl)amino)pyrido[4,3-e]pyrrolo[1,2-a]pyrazine-7-carboxylic acid]",IC50,[1],2800 nM
same,IC50,[2],1700 nM
same,IC50,[3],5300 nM
same,IC50,[4],1500 nM
same,IC50,[5],91 nM
same,IC50,[6],4600 nM
same,IC50,[7],5900 nM
same,IC50,[8],2100 nM
same,IC50,[9],3200 nM
